We go through 13 compounds from paper PMC7393058, “Design, Synthesis, Molecular Modeling Study and Biological Evaluation of New N'-Arylidene-pyrido [2,3-d]pyrimidine-5-carbohydrazide Derivatives as Anti-HIV-1 Agents” (Iranian Journal of Pharmaceutical Research : IJPR, 2019).

pEC50: −log10 of the molar value. Read-outs that look alike come from different tables or passages of the source. A value given as a limit tells only on which side of the number the result lay.

The nature of series [1]: XTT proliferation (cytotoxicity) assay. The class given is cell-based, human. To be noted: human; XTT, Hela cells. As to the method:
(§1) The evaluation of inhibitory effect of synthesized compounds was performed by single-round replication assay which was evaluated in our laboratory and reported previously ([34]-[40]). Briefly, Hela cells (6 × 10^3 per well of 96-wells plate) were incubated with single cycle replicable HIV NL4-3 virions (200 ng p24) in the presence of various concentrations of compounds which were added concurrently with viral infection. The supernatants were collected 72 h postinfection and evaluated for p24 antigen load by capture ELISA (Biomerieux, France). Percentage inhibition of p24 expression in the treated culture was calculated as inhibition rate of p24 (%). The 50% effective concentration (EC50) was determined for each compound. XTT proliferation method was performed to evaluate the cellular toxicity of compounds. Toxicities of the compounds against the cells were quantified using XTT (sodium 3-[1 (phenyl aminocarbonyl)-3,4-tetrazolium]-bis(4-methoxy-6-nitro)benzene sulfonic acid) reagent, according to the kit instruction (Roche, Germany) ([41], [42]). Concentration which reduces proliferation of 50% of cells (CC50) was calculated subsequent to determination of p24 load. For EC50 and CC50 determinations, the compounds were tested at six concentrations ([…]) in triplicates.
(§2) All new synthesized compounds were evaluated for their activity against single cycle replicable HIV NL4-3 by determining their ability to inhibit p24 expression in Hela cell cultures. The well-known nucleoside RT inhibitor (AZT) was assayed in the same cells for comparative purpose. They all were then subjected to cell based XTT colorimetric assay for cytotoxicity to ensure that the anti-HIV-1 activity of the compounds was not a result of their cytotoxic effects ([43], [44]). The biological results are expressed as EC50, CC50, and SI (selectivity index, given by the CC50/EC50 ratio). […] When comparing the anti-HIV-1 activity of tested compounds, it appeared that the presence of substituents on benzylidene fragment confers better inhibition than the unsubstituted counterparts (compound 5a, EC50 >[…]).

The test system of series [2] is single cycle replicable HIV NL4-3. Kind of series: single-round replication assay, inhibition of p24 expression (capture ELISA) in Hela cells. The class given is cell-based, HIV-1. To be noted: for SI=CC50/EC50: selectivity index, CC50/EC50 ratio. As to the method:
as §1, §2

A further series deals with Hela cells. Kind of series: XTT proliferation (cytotoxicity) assay. The class given is cell-based, human. How it is done: as §1, §2
(In general: Tetrazolium dyes change colour on reduction, which living cells bring about.)

[3] abbreviates: Human immunodeficiency virus 1, NL43, HeLa, 72 h.

Broadly, the melting point is the temperature, or range, at which the solid turns liquid. Broadly, the CC50 is the concentration giving 50% cytotoxicity. Read a low CC50 as greater toxicity to the cells. As usually defined, the pEC50 is the negative decadic logarithm of the EC50, by convention in mol/L. As for `Cn1c(=O)c2c(C(=O)NN=Cc3ccc(Cl)cc3)cc(=O)[nH]c2n(C)c1=O` [Compound 5g, N’-(4-chlorobenzylidene)-1,3-dimethyl-2,4,7-trioxo-1,2,3,4,7,8-hexahydropyrido[2,3-d]pyrimidine-5-carbohydrazide], the melting point is 305 °C (dec.). Further, the CC50 at 72 h in series [1] is greater than 200 µM. For the same compound, the pEC50 in series [2] (setting [3]) was 3.96. In addition, in series [2], the “SI=CC50/EC50” value was 4.5.

With `Cc1cccc(C=NNC(=O)c2cc(=O)[nH]c3c2c(=O)n(C)c(=O)n3C)c1` [Compound 5i, 1,3-Dimethyl-N’-(3-methylbenzylidene)-2,4,7-trioxo-1,2,3,4,7,8-hexahydropyrido[2,3-d]pyrimidine-5-carbohydrazide], the melting point was 280 °C (dec.). This compound also gave a CC50 at 72 h in series [1] greater than 200 µM. Besides, in series [2] (setting [3]), the pEC50 is 3.90. Further, the “SI=CC50/EC50” value in series [2] is 4.8.

For `COc1ccccc1C=NNC(=O)c1cc(=O)[nH]c2c1c(=O)n(C)c(=O)n2C` [Compound 5b, N’-(2-methoxybenzylidene)-1,3-dimethyl-2,4,7-trioxo-1,2,3,4,7,8-hexahydropyrido[2,3-d]pyrimidine-5-carbohydrazide], the melting point was 231 °C (dec.). Further, the CC50 at 72 h in series [1] was greater than 200 µM. The same compound gave a pEC50 in series [2] (setting [3]) of 3.92. Also, the “SI=CC50/EC50” value in series [2] was 3.75.

Consider `Cn1c(=O)c2c(C(=O)NN=Cc3cccc(Cl)c3)cc(=O)[nH]c2n(C)c1=O` [Compound 5f, N’-(3-chlorobenzylidene)-1,3-dimethyl-2,4,7-trioxo-1,2,3,4,7,8-hexahydropyrido[2,3-d]pyrimidine-5-carbohydrazide], for which the melting point is 302 °C (dec.). This compound had a CC50 at 72 h in series [1] greater than 200 µM. Further, the pEC50 in series [2] (setting [3]) was 3.92. In addition, the “SI=CC50/EC50” value in series [2] is given as 3.75.

`COc1cccc(C=NNC(=O)c2cc(=O)[nH]c3c2c(=O)n(C)c(=O)n3C)c1` [Compound 5c, N’-(3-methoxybenzylidene)-1,3-dimethyl-2,4,7-trioxo-1,2,3,4,7,8-hexahydropyrido[2,3-d]pyrimidine-5-carbohydrazide]: the melting point is 231 °C (dec.). This compound showed a CC50 at 72 h in series [1] greater than 200 µM. The negative-log EC50 (pEC50) in series [2] (setting [3]) is 3.74. Moreover, the “SI=CC50/EC50” value in series [2] was 1.1.

Consider `Cn1c(=O)c2c(C(=O)NN=Cc3cccc(F)c3)cc(=O)[nH]c2n(C)c1=O` [Compound 5k, N’-(3-fluorobenzylidene)-1,3-dimethyl-2,4,7-trioxo-1,2,3,4,7,8-hexahydropyrido[2,3-d]pyrimidine-5-carbohydrazide], for which the melting point was 287 °C (dec.). In series [1], this compound had a 50% cytotoxic concentration (CC50) at 72 h greater than 200 µM. This compound showed a pEC50 in series [2] (setting [3]) of 3.85. In addition, the “SI=CC50/EC50” value in series [2] turned out to be 2.7.

Compound `Cc1cn([C@H]2C[C@H](N=[N+]=[N-])[C@@H](CO)O2)c(=O)[nH]c1=O` [AZT, reference compound] came in with a CC50 in the series on Hela cells greater than 200 µM. Moreover, the pEC50 in series [2] (inhibition of p24 expression, Hela cells, 72 h postinfection, triplicates, read-out: EC50) is 7.74.

Turning to `Cn1c(=O)c2c(C(=O)NN=Cc3ccccc3Cl)cc(=O)[nH]c2n(C)c1=O` [Compound 5e, N’-(2-chlorobenzylidene)-1,3-dimethyl-2,4,7-trioxo-1,2,3,4,7,8-hexahydropyrido[2,3-d]pyrimidine-5-carbohydrazide], the melting point is 297 °C (dec.). This compound also returned a CC50 at 72 h in series [1] greater than 200 µM. Besides, the pEC50 in series [2] (setting [3]) is 3.81. The “SI=CC50/EC50” value in series [2] came to 2.4.

As for `Cn1c(=O)c2c(C(=O)NN=Cc3ccc(F)cc3)cc(=O)[nH]c2n(C)c1=O`, the melting point fell in the range of 220.7 to 221.3 °C.

Turning to `Cn1c(=O)c2c(C(=O)NN=Cc3ccccc3)cc(=O)[nH]c2n(C)c1=O` [Compound 5a, N’-benzylidene-1,3-dimethyl-2,4,7-trioxo-1,2,3,4,7,8-hexahydropyrido[2,3-d]pyrimidine-5-carbohydrazide], the melting point was 286 °C (dec.). This compound also returned a CC50 at 72 h in series [1] greater than 200 µM. Besides, the pEC50 in series [2] (setting [3]) was less than 3.70. Moreover, the “SI=CC50/EC50” value in series [2] was 1.2.

Take `COc1ccc(C=NNC(=O)c2cc(=O)[nH]c3c2c(=O)n(C)c(=O)n3C)cc1` [Compound 5d, N’-(4-methoxybenzylidene)-1,3-dimethyl-2,4,7-trioxo-1,2,3,4,7,8-hexahydropyrido[2,3-d]pyrimidine-5-carbohydrazide]: the melting point is 231 °C (dec.). Further, the CC50 at 72 h in series [1] turned out to be 185 µM. In series [2] (setting [3]), this compound had a pEC50 of 3.85. Also, in series [2], the “SI=CC50/EC50” value turned out to be 1.3.

Consider `Cc1ccc(C=NNC(=O)c2cc(=O)[nH]c3c2c(=O)n(C)c(=O)n3C)cc1` [Compound 5j, 1,3-Dimethyl-N’-(4-methylbenzylidene)-2,4,7-trioxo-1,2,3,4,7,8-hexahydropyrido[2,3-d]pyrimidine-5-carbohydrazide], for which the melting point was 284 °C (dec.). The compound also registered a CC50 at 72 h in series [1] greater than 200 µM. Moreover, the pEC50 in series [2] (setting [3]) is 4.05.

For the compound `Cc1ccccc1C=NNC(=O)c1cc(=O)[nH]c2c1c(=O)n(C)c(=O)n2C`, the melting point was 277 °C (dec.).
